Key:
[1] = Physical-chemical properties of the LNP / tLNP: hydrodynamic diameter and PDI by dynamic light scattering; assay type: physicochemical; conditions: for PDI* (polydispersity index) / Hydrodynamic diameter (nm): LNP whose PEG-lipid is the labelled compound, mCherry mRNA, N/P 6; for PDI* (polydispersity index): 50:10:38.5:1.5 mol/mol; for Hydrodynamic diameter (nm): ionizable cationic lipid/DSPC/cholesterol/PEG-lipid 50:10:38.5:1.5 mol/mol, pH 7.4 Tris buffer, 25° C.; for formation of LNP encapsulating mRNA: PEG-lipid at 1.5 mol % in LNP with mCherry mRNA
Experimental: The ability to incorporate various of the disclosed PEG-lipids into LNP encapsulating mRNA was assessed using mRNA encoding the fluorescent marker mCherry.
(§1) The mRNA was encapsulated in LNP using a self-assembly process in which an aqueous solution of mRNA at pH=3.5 is rapidly mixed with a solution of lipids dissolved in ethanol, then followed by stepwise phosphate and Tris buffer dilution and tangential flow filtration (TFF) purification. LNP composition in this study was: an ionizable cationic lipid of Formula 1a as shown below/distearoylphosphatidylcholine/cholesterol/PEG-lipid (50:10:38.5:1.5 mol/mol) and were encapsulated at an N/P ratio (the ratio of positively-chargeable lipid amine (N=nitrogen) groups to negatively-charged nucleic acid phosphate (P) groups) at 6. LNPs were frozen at −80° C. LNP were made in which the PEG-lipid was DMG-PEG2000, as a benchmark, or one of Compounds VI-7, VI-8, B-46, or B-47. The diameter of the nanoparticles was measured by dynamic light scattering using a Zetasizer Nano ZS (Malvern Instruments Ltd., Malvern, UK) instrument. Size measurement was carried out in pH 7.4 Tris buffer at 25° C. in relevant disposable capillary cells. A non-invasive back scatter system (NIBS) with a scattering angle of 173° was used for size measurements.
CleanCap® mCherry 5-methoxyuridine (5moU) mRNA (L-7203) was purchased from TriLink. mRNA was encapsulated in LNP using a self-assembly process in which an aqueous solution of mRNA at pH=3.5 is rapidly mixed with a solution of lipids dissolved in ethanol, then followed by stepwise phosphate and Tris buffer dilution and TFF purification. LNP composition in this study was: an ionizable cationic lipid as shown in Example 42/distearoylphosphatidylcholine/cholesterol/DMG-PEG 2000/functionalized PEG-lipid (50:10:38.5:1.4:0.1 mol/mol) and were encapsulated at an N/P ratio (the ratio of positively-chargeable […] amine (N=nitrogen) groups to negatively-charged nucleic acid phosphate (P) groups) at 6. The hydrodynamic diameter of the nanoparticles was measured by dynamic light scattering using a Zetasizer Nano ZS (Malvern Instruments Ltd., Malvern, UK) instrument.
The particle size (hydrodynamic diameter) and polydispersity index of the targeted lipid nanoparticles were determined using dynamic light scattering (DLS) on a Malvern Zetasizer Nano ZS (Malvern Instruments, Worcestershire, UK). Size measurement was carried out in pH 7.4 Tris buffer at 25° C. in relevant disposable capillary cells. A non-invasive back scatter system (NIBS) with a scattering angle of 173° was used for size measurements.

[2] = Encapsulation efficiency of mRNA in LNP / tLNP (RiboGreen RNA assay); assay type: physicochemical; conditions: LNP whose PEG-lipid is the labelled compound; 50:10:38.5:1.5 mol/mol, mCherry mRNA, N/P 6
Text: as §1
mRNA content was determined using a Quant-iT™ RiboGreen RNA assay kit (Invitrogen™). Encapsulation efficiency was calculated by determining the unencapsulated mRNA content by measuring the fluorescence intensity (Fi) upon the addition of RiboGreen reagent to the LNP and comparing this value to the total fluorescence intensity (Ft) of the RNA content that is obtained upon lysis of the LNPs by 1% Triton X-100, where % encapsulation=(Ft−Fi)/Ft×100).

HEK293F cells = assay: Transfection of HEK293F cells with mCherry mRNA encapsulated in LNP (flow cytometry, Aqua Live/Dead); assay type: cell-based, human; conditions: LNP comprising the labelled PEG-lipid; for expression level of mCherry (gMFI) compared with the benchmark LNP (DMG-PEG2000) / transfection at the lower doses: 24 hours; for expression level of mCherry (gMFI) compared with the benchmark LNP (DMG-PEG2000): FIG. 14C; for transfection at the lower doses: lower LNP doses
Experimental: The ability of the LNP formed in the preceding Example to transfect HEK293F cells, a human embryonic kidney cell-derived cell line, with the mCherry mRNA was assessed. Viral Production Cells (Gibco Catalog number: A35347), a derivative of the HEK 293F cell line adapted to a chemically-defined, serum-free and protein-free medium (LV-MAX™ Production Medium; Gibco Catalog number: A3583401) were grown in suspension, sedimented, resuspended at about 1×10^6 cells/mL, and 200 μL distributed to the wells of a 96-well U-bottom plate. Frozen LNP were thawed and diluted to 100 μg mRNA/mL with sterile water for injection. An appropriate volume of LNP was added to provide 0, 0.3, 0.6, or 2 μg RNA per well in duplicate and mixed by re-pipetting. The cells were then incubated for 1 hour at 37° C. in a CO2 incubator, washed three times with phosphate buffered saline, resuspended in 400 μL of medium in a deep-well 96-well plate, and incubated at 37° C. in a CO2 incubator on an orbital shaker at 900 RPM.
Twenty-four hours after addition of the LNP to the cells they were stained with Aqua Live/Dead (Thermo: catalog L34965) to assess cell viability. Transfection rate and expression level in the transfected cells was assessed by flow cytometry based on mCherry fluorescence.

Molecule | PDI* (polydispersity index) [1] | Hydrodynamic diameter (nm) [1] [nm] | Encapsulation Efficiency (%) [2] [%] | formation of LNP encapsulating mRNA [1] | expression level of mCherry (gMFI) compared with the benchmark LNP (DMG-PEG2000) (HEK293F cells) | transfection of live cells (transfection rate) (HEK293F cells; highest LNP dose tested, 24 hours after addition, mCherry fluorescence, FIG. 14B) [%] | transfection at the lower doses (HEK293F cells; FIG. 14B)
1,2-dimyristoyl-glycero-3-methoxypolyethylene glycol-2000 [DMG-PEG2000, reference compound] | 0.03 | 82 | 96 | – | – | – | –
CCCCCCCCCCCCCCCCCC(=O)OCC(COC(=O)CCCCCCCCCCCCCCCCC)CC(=O)OCCOCCOCCOCCOCCOCCOCCOCCOCCOCCOCCOCCOCCOCCOCCOCCOCCOCCOCCOCCOCCOCCOCCOCCOCCOCCOCCOCCOCCOCCOCCOCCOCCOCCOCCOCCOCCOCCOCCOCCOCCOCCOCCOCCOCCOCc1ccc(OC)cc1 [Compound B-46] | 0.04 | 88 | 85 | formed LNP | substantially higher expression levels | ~90 | substantial levels of transfection
CCCCCCCC(CCCCCCC)CCC(=O)OCC(COC(=O)CCC(CCCCCCC)CCCCCCC)CC(=O)OCCOCCOCCOCCOCCOCCOCCOCCOCCOCCOCCOCCOCCOCCOCCOCCOCCOCCOCCOCCOCCOCCOCCOCCOCCOCCOCCOCCOCCOCCOCCOCCOCCOCCOCCOCCOCCOCCOCCOCCOCCOCCOCCOCCOCCOCc1ccc(OC)cc1 [Compound B-47] | 0.12 | 98 | 68 | formed LNP | performed comparably | – | minimal transfection
